Measurements: paper PMC7380166, “How to Study the Metabolism of New Psychoactive Substances for the Purpose of Toxicological Screenings—A Follow-Up Study Comparing Pooled Human Liver S9, HepaRG Cells, and Zebrafish Larvae” (Frontiers in Chemistry, 2020)
Read-outs that look alike come from different tables or passages of the source.

How the values were obtained:
[1] = cited from earlier work; for Detection in pHLS9 [25 µM]: n = 2, according to literature
[2] = human biosamples after intake of ephylone and 4F-PHP; ref Wagmann et al., [2019b]; cited from earlier work
[3] = tested on: zebrafish larvae; experiment: Zebrafish larvae exposure, metabolite identification by LC-HRMS/MS; settings: 24 h; for Absolute peak area, Zebrafish larvae [100 µM]: 100 µM parent NPS in medium; for Absolute peak area, Zebrafish larvae [100 µM] / Absolute peak area, Zebrafish larvae [25 μM]: larvae 4 dpf, larvae extract, one replicate of n = 3, n.d. = not detected; for Absolute peak area, Zebrafish larvae [25 μM]: 25 μM 4F-MDMB-BINACA in medium
[4] = tested on: HepaRG cells; experiment: Incubations with HepaRG cells, metabolite identification by LC-HRMS/MS; format: in vitro ADME, human; settings: 24 h; for Absolute peak area, HepaRG [25 μM]: 25 μM parent NPS; for Absolute peak area, HepaRG [25 μM] / Absolute peak area, HepaRG [250 μM]: cell culture medium, one replicate of n = 3, n.d. = not detected; for Absolute peak area, HepaRG [250 μM]: 250 μM parent NPS
[5] = tested on: zebrafish larvae; experiment: In vivo maximum-tolerated concentration (MTC) study in zebrafish larvae; parameters: species or system zebrafish (Danio rerio); settings: for Survival rate: 24-h treatment, fifteen larvae
Description: Internal protocols based on published standard methods (Westerfield, [2007]) were used to perform zebrafish husbandry and the maximum-tolerated concentration (MTC) testing was based on a previous study (Richter et al., [2019a]). Danieau's medium [17 mM NaCl, 2 mM KCl, 0.12 mM MgSO4, 1.8 mM Ca(NO3)2, 1.5 mM HEPES, pH 7.1–7.3, and 1.2 μM methylene blue] at 28°C was used to raise zebrafish larvae of the AB wild-type strain. For MTC testing, 96-well plates were used with 100 μl of medium and one larva per well. Drug exposition was started 4 dpf using 0, 0.01, 0.1, 1, 10, 50, or 100 μM final concentrations of 3,4-DMA-NBOMe, ephylone, 4F-MDMB-BINACA, 4F-PHP, or 1P-LSD, respectively. The drug exposure in the incubator at 28°C lasted 24 h. The final DMSO concentration was 1% (v/v) for all experiments. Monitoring of the larvae was done using a LEICA M205 FA stereo microscope (Leica Mikrosysteme Vertrieb GmbH, Wetzlar, Germany) to detect developmental defects and/or decreased survival rates. Fifteen larvae were used for each experiment.

[6] = tested on: monooxygenases; settings: initial monooxygenases activity screenings described elsewhere; ref Caspar et al., [2018a]; Wagmann et al., [2019b],[c]; cited from earlier work
[7] = Incubations with pooled human liver S9 fraction (pHLS9), metabolite identification by LC-HRMS/MS; format: in vitro ADME; settings: 25 μM 4F-MDMB-BINACA, one replicate of n = 2, n.d. = not detected; for Absolute peak area, pHLS9 6 h [25 μM]: 6 h incubation; for Absolute peak area, pHLS9 1 h [25 μM]: 1 h incubation
Description: According to published procedures (Richter et al., [2017b], [2019b]; Caspar et al., [2018b]; Wagmann et al., [2019b],[c]), the final incubation volume per reaction tube was 150 μl, with a final protein concentration of 2 mg/ml. The given concentrations represent final concentrations. A preincubation for 10 min at 37°C with UGT reaction mixture solution B (containing alamethicin, 25 μg/ml), MgCl2 (2.5 mM), NADP^+ (0.6 mM), isocitrate (2.5 mM), isocitrate dehydrogenase (0.8 U/ml), superoxide dismutase (100 U/ml), acetyl coenzyme A (0.1 mM), phosphate buffer (90 mM, pH 7.4), and pHLS9 (2 mg/ml) was done. Afterwards, UGT reaction mixture solution A (containing UDP glucuronic acid, 2.5 mM), PAPS (40 μM), SAM (1.2 mM), dithiothreitol (1 mM), and glutathione (10 mM) were added, as well as 25 μM 4F-MDMB-BINACA to start the reactions. The mixture was incubated for 360 min. Total amount of organic solvent in incubation mixtures was <2% (Chauret et al., [1998]). After 60 min, an aliquot of the reaction mixture (60 μl) was transferred in another reaction tube containing 20 μl of ice-cold acetonitrile to terminate the reactions. The remaining aliquot (90 μl) was incubated for an additional 300 min, and then the reactions were stopped by adding 30 μl of ice-cold acetonitrile. Thereafter, the reaction tubes were cooled at −20°C for 30 min prior to centrifugation at 18,407 × g for 2 min. The supernatants (50 μl) were transferred into autosampler vials, and 1 μl was injected onto the LC-HRMS/MS system. Control samples without pHLS9 and blank samples without substrate were prepared to confirm the absence of non-metabolically formed and interfering compounds, respectively. All incubations were performed in duplicate.
According to a previous study (Richter et al., [2019a]), a Thermo Fisher Scientific (TF, Dreieich, Germany) Dionex UltiMate 3000 Rapid Separation (RS) UHPLC system with a quaternary UltiMate 3000 RS pump and an UltiMate 3000 RS autosampler controlled by the TF Chromeleon software version 6.8 was used. The LC system was coupled to an Orbitrap-based TF Q-Exactive Plus equipped with a heated electrospray ionization II (HESI-II) source. Calibration was done prior to analysis with a Positive Cal Mix (Supelco, Bellefonte, PA, USA) at a flow rate of 3 μl/min using a syringe pump. The conditions of the LC system were as follows: TF Accucore PhenylHexyl column (100 × 2.1 mm, 2.6 μm particle size); gradient elution with 2 mM ammonium formate solution containing 0.1% (v/v) formic acid (eluent A) and 2 mM ammonium formate solution in acetonitrile/methanol (50:50, v/v) containing 0.1% (v/v) formic acid, and 1% (v/v) water (eluent B). […] The following gradient was used: 0–1.0 min hold 1% B, 1–10 min to 99% B, 10–11.5 min hold 99% B, 11.5–13.5 min hold 1% B. The HESI-II source conditions were as follows: ionization mode, positive; heater temperature, 320°C; ion transfer capillary temperature, 320°C; sheath gas, 60 arbitrary units (AU); auxiliary gas, 10 AU; spray voltage, 4.00 kV; and S-lens RF level, 50.0. Mass spectrometry experiments were performed using high-resolution (HR) full scan mode and a targeted MS^2 mode with an inclusion list for each NPS. The inclusion list contained m/z values of metabolites, which were likely to be formed for example hydroxy, oxo, carboxy, dealkyl, demethylenylated, and defluorinated metabolites (phase I) as well as sulfates and glucuronides (phase II) and combinations of them. Full scan settings were as follows: resolution, 35,000; automatic gain control (AGC) target, 3e6; maximum injection time (IT), 120 ms; scan ranges, 3,4-DMA-NBOMe m/z 100–700, ephylone m/z 200–600, 4F-MDMB-BINACA m/z 150–700, 4F-PHP m/z 200–600, and 1P-LSD m/z 250–700. The settings for the targeted MS^2 mode with the respective inclusion lists were as follows: resolution, 17,500; AGC target, 2e5; maximum IT, 250 ms; loop count, 5; isolation window, 1.0 m/z; stepped normalized collision energy (NCE), 17.5, 35, 52.5%; pick others, enabled. […]

[8] = ephylone and metabolites, ref Wagmann et al., 2019a
[9] = 25 μM, ref Caspar et al., [2018b]

CCCC(NCC)C(=O)c1ccc(O)c(O)c1 (stereo not drawn) [ME2]
Detection in pHLS9 [25 µM] [1, 8]: +
Signals with the highest abundance in human plasma and/or urine [2]: highest ephylone-related signals
Absolute peak area, Zebrafish larvae [100 µM] [3]: 4.44E+06
Absolute peak area, HepaRG [25 μM] [4]: 1.72E+05
Absolute peak area, HepaRG [250 μM] [4]: 6.37E+05

COc1ccccc1CNC(C)Cc1ccc(OC)c(OC)c1 (stereo not drawn) [3,4-DMA-NBOMe, 1-[3,4-dimethoxy]-N-[ortho-methoxybenzyl]propane-2-amine]
Number of phase I metabolites detected, pHLS9 [25 μM] [1, 9]: 6 (Caspar et al., [2018b])
Number of phase II metabolites detected, pHLS9 [25 μM] [1, 9]: 5 (Caspar et al., [2018b])
Detection in pHLS9 [25 µM] ([1]; 3,4-DMA-NBOMe and metabolites, ref Caspar et al., 2018): +
Survival rate ([5]; 0.01 μM, larvae 4 dpf): 100%
Survival rate ([5]; 0.1 μM, larvae 4 dpf): 100%
Survival rate ([5]; 1 μM, larvae 4 dpf): 100%
Survival rate ([5]; 10 μM, larvae 4 dpf): 100%
Survival rate ([5]; 50 μM, larvae 4 dpf): 100%
Survival rate ([5]; 100 μM, larvae 4 dpf): 100%
Survival rates for all tested concentrations ([5]; 0.01 to 100 μM, larvae 4 dpf, 24 h): 100%
Concentration considered non-toxic for zebrafish larvae (4 dpf) ([5]; 24 h exposure via medium): 100 µM
Malformations ([5]; up to 100 μM, larvae 4 dpf, 24 h): no malformations
Monooxygenases involved in metabolism [6]: CYP3A4 was described to be involved in the N-dealkylation and CYP2C19 and CYP2D6 in the O-demethylation and hydroxylation
Number of phase I metabolites detected, Zebrafish larvae ([3]; 100 μM in medium): 9
Number of phase II metabolites detected, Zebrafish larvae ([3]; 100 μM in medium): 7
Absolute peak area, Zebrafish larvae [100 µM] [3]: 6.22E+09
Absolute peak area, HepaRG [25 μM] [4]: 1.48E+09
Number of phase I metabolites detected, HepaRG [25 μM] ([4]; 25 μM): 6
Number of phase II metabolites detected, HepaRG [25 μM] ([4]; 25 μM): 4
Absolute peak area, HepaRG [250 μM] [4]: 1.03E+10
Number of phase I metabolites detected, HepaRG [250 μM] ([4]; 250 μM): 10
Number of phase II metabolites detected, HepaRG [250 μM] ([4]; 250 μM): 7

CC1(C)COC(=O)C1NC(=O)c1nn(CCCC(=O)O)c2ccccc12 (stereo not drawn) [MB9]
Absolute peak area, pHLS9 6 h [25 μM] [7]: 1.57E+05
Absolute peak area, Zebrafish larvae [25 μM] [3]: 2.53E+06

CC(C)(CO)C(NC(=O)c1nn(CCCCF)c2ccccc12)C(=O)O (stereo not drawn) [MB13]
Absolute peak area, pHLS9 1 h [25 μM] [7]: 7.30E+03
Absolute peak area, pHLS9 6 h [25 μM] [7]: 6.42E+05
Absolute peak area, Zebrafish larvae [25 μM] [3]: 4.57E+05
Absolute peak area, HepaRG [250 μM] [4]: 3.13E+07

COC(=O)[C@@H](NC(=O)c1nn(CCCC(=O)O)c2ccccc12)C(C)(C)C [MB15]
Absolute peak area, pHLS9 1 h [25 μM] [7]: 2.16E+06
Absolute peak area, pHLS9 6 h [25 μM] [7]: 3.34E+06
Absolute peak area, Zebrafish larvae [25 μM] [3]: 2.60E+07
Absolute peak area, HepaRG [25 μM] [4]: 1.15E+04
Absolute peak area, HepaRG [250 μM] [4]: 8.00E+06

CC1(C)COC(=O)C1NC(=O)c1nn(CCCCO)c2ccccc12 (stereo not drawn) [MB5]
Absolute peak area, pHLS9 6 h [25 μM] [7]: 1.26E+06
Absolute peak area, Zebrafish larvae [25 μM] [3]: 9.42E+05
Absolute peak area, HepaRG [250 μM] [4]: 2.40E+05

CC(C)(C)[C@H](NC(=O)c1nn(CCCCO)c2ccccc12)C(=O)O [MB7]
Absolute peak area, pHLS9 6 h [25 μM] [7]: 1.91E+06
Absolute peak area, Zebrafish larvae [25 μM] [3]: 5.96E+04
Absolute peak area, HepaRG [25 μM] [4]: 1.25E+06
Absolute peak area, HepaRG [250 μM] [4]: 1.34E+07

CCCC(N)C(=O)c1ccc2c(c1)OCO2 (stereo not drawn) [ME1]
Detection in pHLS9 [25 µM] [1, 8]: +
Signals with the highest abundance in human plasma and/or urine [2]: highest ephylone-related signals
Absolute peak area, Zebrafish larvae [100 µM] [3]: 4.12E+06
Absolute peak area, HepaRG [25 μM] [4]: 4.14E+06
Absolute peak area, HepaRG [250 μM] [4]: 2.21E+07

CC(C)(C)[C@H](NC(=O)c1n[nH]c2ccccc12)C(=O)O [MB3]
Absolute peak area, pHLS9 1 h [25 μM] [7]: 9.07E+05
Absolute peak area, pHLS9 6 h [25 μM] [7]: 1.27E+06
Absolute peak area, HepaRG [25 μM] [4]: 3.99E+05
Absolute peak area, HepaRG [250 μM] [4]: 6.92E+06
